Experimental data published in patent US20040019027A1, “Method of treating cerebrotendinous xanthomatosis” (priority 2002, published 2004).

What was measured:
mouse PXR = biological target: T1, mouse PXR (Mus musculus, UniProt O54915); experiment: GAL-mouse PXR luciferase reporter gene assay in transfected CV-1 cells; assay type: cell-based; conditions: 10 μM; CV-1 cells; FIG. 3(a), FIG. 8(a)
T1 sequence (O54915 104-431): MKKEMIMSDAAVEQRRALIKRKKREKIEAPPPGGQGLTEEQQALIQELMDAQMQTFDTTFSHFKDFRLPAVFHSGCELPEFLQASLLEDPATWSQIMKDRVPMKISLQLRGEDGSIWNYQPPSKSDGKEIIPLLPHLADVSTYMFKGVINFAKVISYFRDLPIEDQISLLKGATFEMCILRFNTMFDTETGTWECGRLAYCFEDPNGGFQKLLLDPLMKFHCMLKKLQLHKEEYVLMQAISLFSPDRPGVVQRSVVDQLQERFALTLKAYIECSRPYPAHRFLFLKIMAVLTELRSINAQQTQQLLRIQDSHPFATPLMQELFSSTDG
Protocol: CV-1 cells were transiently transfected with a GAL-mouse PXR expression vector, a GAL4 reporter construct, and a β-galactosidase vector as an internal control. Where noted, the bile acid transporter NTCP was added to the transfection to promote the transport of membrane-impermeable bile acids. Transfected cells were exposed to the indicated compounds (10 μM each), and fold activation was determined using luciferase and β-galactosidase enzyme activity assays. […] The transfected CV-1 cells were treated with multiple concentrations of each sterol. Error bars in this figure and subsequent figures represent the standard error of the mean (SEM) from representative experiments.
It is questioned whether β-cholestane-3α, 7α, 12α-triol (Triol) levels were elevated in whole liver extracts from CYP27 −/− mice. To show the level of 5β-cholestane-3α, 7α, 12α-triol in mouse liver extract, wild-type or CYP27 −/−mouse liver tissue (0.5 g) was extracted with 7.5 ml of ethyl acetate/methanol (2:1, vol/vol) along with 5β-cholestane-3β,5α,6β-triol (25 μg) as an internal control for extraction efficiency. […] The extraction was repeated three times, and the organic fraction was pooled and evaporated. To remove the vast excess of cholesterol that interferes with subsequent gas chromatography-mass spectroscopy analysis, the evaporated residue was dissolved in 0.5 ml of chloroform/acetone (35:25, vol/vol) and applied to a Bond Elut SI cartridge (Varian, 500 mg). Cholesterol was removed by washing with 6 ml of chloroform/acetone (35:25, vol/vol), and sterols were eluted with 7 ml of chloroform/acetone/methanol (35:25:20, vol/vol/vol). The sterol fraction was evaporated and dissolved in acetonitrile, and a portion was silylated with N,O-bis(trimethylsilyl)-trifluoroacetamide containing 1% trimethylchlorosilane (Pierce). The silylated material was analyzed by using a Shimadzu model GC-17A gas chromatograph with a QP5000 mass spectral detector and a Hewlett-Packard Ultra 2 (cross-linked-siloxane) column. The injector port was kept at 250° C., interface temperature was kept at 280° C., and oven temperature was kept at 50° C. followed by a gradient of 30° C. min^−1 up to 300° C. The electron impact ionization source was at 70 eV. 5β-cholestane-3α, 7α, 12α-triol levels were determined by comparison to a standard curve. For transfection studies, the sterol fraction was dissolved in DMSO and added to the cell-culture media. containing DMEM with 10% delipidated FBS.

[1] = system: PXR target genes cyp3a11, cyp2c, and oatp2; experiment: Northern analysis of PXR target genes in primary mouse hepatocytes; assay type: cell-based; conditions: 10 μM, 24 h, FIG. 5
Protocol: Primary mouse hepatocytes were treated with compounds (10 μM), and Northern analysis was performed using the probes as described in Example III.
Additionally, a Northern blot analysis of PXR target genes can be used to determine whether or not a molecule or compound is a PXR agonist. […] In this approach, hepatocytes are isolated, cultured in vitro, and exposed to a molecule or compound suspected to be a PXR agonist. Total RNA of the hepatocytes is isolated and subject to Northern blot analysis with probes of PXR target genes' fragments. The PXR target genes have transcriptional regulatory regions that interact with the DNA binding domain of a PXR. When a PXR agonist interacts or binds to the ligand binding domain of a PXR, the DNA binding domain of a PXR interacts with the transcriptional regulatory region of the target genes and activates the expression of the target genes. Consequently, an enhanced expression of target genes is observed in the Northern blot analysis. Commonly used target genes' fragments include cyp3a11, nucleotides from #1,065 to #1,569 of GenBank accession no. X60452; cyp2c, nucleotides from #787 to #1,193 of GenBank accession no. AK008580; and oatp2, nucleotides 2,124-2,486 of GenBank accession no. NM_021471. gapdh, nucleotides from #590 to #1,089 of GenBank accession no. NM_008094, is used as a control since gapdh is not regulated by the activation of a PXR. […]

CC(=O)[C@H]1[C@H](C#N)C[C@H]2[C@@H]3CC=C4C[C@@H](O)CC[C@]4(C)[C@H]3CC[C@@]21C [PCN, pregnenolone-16α-carbonitrile]
activation of GAL-mouse PXR (in words) (mouse PXR): very effective agonist | induction of PXR target genes cyp3a11, cyp2c, oatp2 (in words) [1]: activated expression of the PXR target genes cyp3a11, cyp2c, and oatp2
